Measurements from patent US12440496B2, “Natriuretic peptide receptor a agonists useful for the treatment of cardiometabolic diseases, kidney disease and diabetes” (Merck Sharp & Dohme LLC, priority 2019, dated 2025).

Biological target: T1, hNPRA (Homo sapiens, UniProt P16066)
T1 construct: expressed in transfected cells
T1 sequence (P16066 33-1061): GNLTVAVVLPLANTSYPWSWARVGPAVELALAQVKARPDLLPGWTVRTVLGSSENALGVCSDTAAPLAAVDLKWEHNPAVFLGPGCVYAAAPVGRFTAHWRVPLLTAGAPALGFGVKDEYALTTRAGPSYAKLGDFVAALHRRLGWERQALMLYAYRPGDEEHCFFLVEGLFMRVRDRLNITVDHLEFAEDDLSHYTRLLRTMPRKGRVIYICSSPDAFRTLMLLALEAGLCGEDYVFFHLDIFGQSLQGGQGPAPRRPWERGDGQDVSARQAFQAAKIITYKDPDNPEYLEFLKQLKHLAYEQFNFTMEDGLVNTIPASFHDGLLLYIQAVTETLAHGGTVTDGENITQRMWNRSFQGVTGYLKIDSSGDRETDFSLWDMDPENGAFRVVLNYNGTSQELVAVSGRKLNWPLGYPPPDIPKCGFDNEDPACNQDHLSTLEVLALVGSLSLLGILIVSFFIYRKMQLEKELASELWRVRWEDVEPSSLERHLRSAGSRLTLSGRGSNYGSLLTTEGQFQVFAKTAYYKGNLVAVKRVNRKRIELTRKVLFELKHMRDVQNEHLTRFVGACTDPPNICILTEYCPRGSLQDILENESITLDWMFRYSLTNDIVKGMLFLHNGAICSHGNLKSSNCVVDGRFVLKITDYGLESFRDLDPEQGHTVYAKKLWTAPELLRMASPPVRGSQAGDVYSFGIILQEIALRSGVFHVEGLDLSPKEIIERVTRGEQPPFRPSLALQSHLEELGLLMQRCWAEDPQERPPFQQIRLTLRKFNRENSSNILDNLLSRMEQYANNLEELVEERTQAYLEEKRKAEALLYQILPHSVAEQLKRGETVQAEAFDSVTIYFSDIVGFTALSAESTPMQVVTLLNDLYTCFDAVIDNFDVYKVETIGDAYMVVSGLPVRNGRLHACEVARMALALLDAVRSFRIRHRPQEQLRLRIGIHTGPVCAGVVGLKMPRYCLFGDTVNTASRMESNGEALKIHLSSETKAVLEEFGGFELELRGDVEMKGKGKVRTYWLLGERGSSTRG
Assay: NPRA Functional Cell Assay (cGMP HTRF, NPRA HEK JumpIn stable cells)
Assay type: cell-based
Details: cGMP production, 1 hour at 37° C., 10-point dose response
From the text: NPRA Functional Cell Assay
Assay Buffer components HEPES and Opti-MEM® I Reduced-Serum with Glutamine (no phenol red) were from Gibco/Invitrogen (Thermo Fisher Scientific, Waltham, MA USA). 3-Isobutyl-1-methylxanthine (IBMX) and 4-(3-Butoxy-4-methoxybenzyl) imidazolidin-2-one (RO20) were obtained from Sigma-Aldrich (St. Louis, MO, USA). DPBS (Dulbecco's phosphate-buffered saline) without Ca2+ and Mg2+ was purchased from GE Healthcare Bio-Sciences (Pittsburgh, PA, USA). 384 well white Optiplates were from Perkin Elmer (Atlantic Highlands, NJ, USA). Human ANP (Atrial Natriuretic Peptide) (1-28) was purchased from Sigma-Aldrich (Catalog #A1663) and rat ANP (1-28) from Bachem (Torrance, CA, USA) (Catalog #H2100). Human-BNP (Human-Brain Natriuretic Peptide) (1-32 AA) was purchased from American Peptide Company (Sunnyvale, CA, USA) (product No. 14-1-90). cGMP kits were purchased from Cisbio. The assay ready frozen (ARF) Human/rat/dog NPRA HEK JumpIn Stable frozen cells (low passage number 5-11) were prepared in-house.
Test compounds were titrated in DMSO in a 10-point dose response in a separate step followed by a 100-fold dilution into the reaction. Positive response for each assay was determined using 10 nM rat-ANP peptide (rat cells) or 50 nM h-ANP peptide (human and dog cells).
Cells were thawed, washed with DPBS and resuspended in assay buffer (Opti-MEM+Glutamine, phenol red free media, 10 mM HEPES, 100 uM IBMX and 100 uM RO20) that was warmed to 37° C. Cells were then transferred to microplates via a Microplate Combi dispenser at a density of 1500, 400 and 1200 cells/well for human, rat and dog cells respectively, followed by acoustic transfer (Echo) of compound.
(§1) Compounds and cells were incubated at 37° C. with 5% CO2 for 1 hour, after which the cells were lysed and cGMP was captured using a CisBio cGMP HTRF assay kit. The TRF signal was measured with an Envision plate reader (emission set to 615 and 665 nm) after 1 hour incubation at ambient temperature. The TRF signal was converted to [cGMP] through the use of a cGMP calibration curve on each microplate. EC50's were generated from the resulting dose response curves by use of a 4 parameter logistic algorithm.
Assay Buffer components HEPES and Opti-MEM® I Reduced-Serum with Glutamine (no phenol red) were from Gibco/Invitrogen. 3-Isobutyl-1-methylxanthine (IBMX) and 4-(3-Butoxy-4-methoxybenzyl) imidazolidin-2-one (RO20) were obtained from Sigma. DPBS (Dulbecco's phosphate-buffered saline) without Ca2+ and Mg2+ was purchased from GE Healthcare Bio-Sciences (Pittsburgh, PA, USA). 384 well white Optiplates were from Perkin Elmer (Atlantic Highlands, NJ, USA). Human ANP (1-28) was purchased from Sigma (A1663) and rat ANP (1-28) from Bachem (H2100). Human-BNP (1-32 AA) was purchased from American Peptide Company (Sunnyvale, CA, USA) (product No. 14-1-90). cGMP kits were purchased from Cisbio (Bedford, MA, USA). The assay ready frozen (ARF) Human/rat/dog NPRA HEK JumpIn Stable frozen cells (low passage number 5-11) were prepared in-house.
as §1, with “Envision®” for “Envision”, “reader (Perkin Elmer)” for “reader”
hNPRA EC50 (nM) were determined for the compounds of Example 1 through Example 273 and are reported in the Experimental section of this application.

Row | EC50 [nM] | SMILES
1 | 1210 | CC(C)[C@]1(F)CCc2nc3sc(C(=O)N[C@H](CCN4CCC(C(=O)O)CC4)c4ccc(-c5ccnnc5)nc4)nc3cc2C1 [Example 270, 1-((R)-3-((S)-7-fluoro-7-isopropyl-5,6,7,8-tetrahydrothiazolo[5,4-b]quinoline-2-carboxamido)-3-(6-(pyridazin-4-yl)pyridin-3-yl)propyl)piperidine-4-carboxylic acid]
2 | 1210 | CC(C)(C)[C@H]1CCc2nc3sc(C(=O)N[C@H](CCN4CCC(O)CC4)c4cccc(NC(=O)CCN)c4)nc3cc2C1 (racemic) [Example 119, [3-oxo-3-[3-[rac-(1R)-3-(4-hydroxy-1-piperidyl)-1-[[rac-(7S)-7-tert-butyl-5,6,7,8-tetrahydrothiazolo [5,4-b]quinoline-2-carbonyl]amino]propyl]anilino]propyl]ammonium; 2,2,2-trifluoroacetate]
3 | 611 | CC(C)(C)[C@H]1CCc2nc3sc(C(=O)N[C@H](CCN4CCC(O)CC4)c4ccc(-c5ccc(O)nn5)cc4)nc3cc2C1 (racemic) [Example 165, rac-(7S)-7-tert-butyl-N-[rac-(1R)-3-(4-hydroxypiperidin-1-ium-1-yl)-1-[4-(6-hydroxypyridazin-3-yl)phenyl]propyl]-5,6,7,8-tetrahydrothiazolo[5,4-b]quinoline-2-carboxamide; 2,2,2-trifluoroacetate]
4 | 198 | CC(C)(C)[C@H]1CCc2nc3sc(C(=O)N[C@H](CCN4CCC(C(=O)O)CC4)c4ccc(-c5cnc(O)c(F)c5)cc4)nc3cc2C1 [Example 224, sodium 1-((R)-3-((S)-7-(tert-butyl)-5,6,7,8-tetrahydrothiazolo[5,4-b]quinoline-2-carboxamido)-3-(4-(5-fluoro-6-hydroxypyridin-3-yl)phenyl)propyl)piperidine-4-carboxylate]
5 | 925 | CC(C)(C)[C@H]1CCc2nc3sc(C(=O)N[C@H](CCN4CCC(O)CC4)c4ccc(-c5cnc(O)c(C#N)c5)cc4)nc3cc2C1 (racemic) [Example 172, rac-(7S)-7-tert-butyl-N-[rac-(1R)-1-[4-(5-cyano-6-hydroxy-3-pyridyl)phenyl]-3-(4-hydroxypiperidin-1-ium-1-yl)propyl]-5,6,7,8-tetrahydrothiazolo[5,4-b]quinoline-2-carboxamide; 2,2,2-trifluoroacetate]
6 | 876 | CC(C)(C)[C@H]1CCc2nc3sc(C(=O)N[C@H](CCN4CCC(O)CC4)c4cccc(C(=O)N5CC(N6CCOCC6)C5)c4)nc3cc2C1 (racemic) [Example 157, rac-(7S)-7-tert-butyl-N-[rac-(1R)-3-(4-hydroxy-1-piperidyl)-1-[3-(3-morpholinoazetidine-1-carbonyl)phenyl]propyl]-5,6,7,8-tetrahydrothiazolo[5,4-b]quinoline-2-carboxamide]
7 | 721 | CC(C)(C)[C@H]1CCc2nc3sc(C(=O)N[C@H](CCN4CCC(O)CC4)c4cccc(C(=O)NC5CCNC5=O)c4)nc3cc2C1 (mixture of isomers) [Example 154, rac-(7S)-7-tert-butyl-N-[rac-(1R)-3-(4-hydroxy-1-piperidyl)-1-[3-[(2-oxopyrrolidin-3-yl)carbamoyl]phenyl]propyl]-5,6,7,8-tetrahydrothiazolo[5,4-b]quinoline-2-carboxamide]
8 | 795 | CC(C)(C)[C@H]1CCc2nc3sc(C(=O)N[C@H](CCN4CCC(O)CC4)c4cccc(N5CCNC5=O)c4)nc3cc2C1 (racemic) [Example 117, rac-(7S)-7-tert-butyl-N-[rac-(1R)-3-(4-hydroxypiperidin-1-ium-1-yl)-1-[3-(2-oxoimidazolidin-1-yl)phenyl]propyl]-5,6,7,8-tetrahydrothiazolo[5,4-b] quinoline-2-carboxamide; 2,2,2-trifluoroacetate]

More lines, now with the values behind:

Row | SMILES | EC50 [nM]
9 | CC(C)(C)[C@H]1CCc2nc3sc(C(=O)N[C@H](CCN[C@H]4C[C@@H](CO)[C@H](O)[C@@H]4O)c4ccc(-c5ccc(=O)[nH]c5)cc4)cc3cc2C1 (racemic) [Example 26, [rac-(1S,2R,3S,4S)-2,3-dihydroxy-4-(hydroxymethyl)cyclopentyl]-[rac-(3R)-3-[4-(6-oxo-1H-pyridin-3-yl)phenyl]-3-[rac-(6S)-6-tert-butyl-5,6,7,8-tetrahydrothieno[2,3-b]quinoline-2-carbonyl]amino]propyl] ammonium;formate] | 386
10 | CC(C)(C)[C@H]1CCc2nc3sc(C(=O)N[C@H](CCN4C[C@@H](O)[C@@H](O)C4)c4ccc(-c5ccc(=O)[nH]c5)cc4)cc3cc2C1 (racemic) [Example 61, rac-(6S)-6-tert-butyl-N-[rac-(1R)-1-[4-(6-oxo-1H-pyridin-3-yl)phenyl]-3-[rac-(3S,4R)-3,4-dihydroxypyrrolidin-1-ium-1-yl]propyl]-5,6,7,8-tetrahydrothieno[2,3-b]quinoline-2-carboxamide;formate] | 1040
11 | CC(C)(C)[C@H]1CCc2nc3sc(C(=O)N[C@H](CCN4CCC4)c4cccc(NS(C)(=O)=O)c4)cc3cc2C1 (racemic) [Example 20, ammonium; methylsulfonyl-[3-[rac-(1R)-3-(azetidin-1-yl)-1-[[rac-(6S)-6-tert-butyl-5,6,7,8-tetrahydrothieno[2,3-b]quinoline-2-carbonyl]amino]propyl]phenyl]azanide] | 1650
12 | CC(C)(C)[C@H]1CCc2nc3sc(C(=O)N[C@H](CCNC4CCCC4)c4ccc(-c5ccc(=O)[nH]c5)cc4)cc3cc2C1 (racemic) [Example 52, cyclopentyl-[rac-(3R)-3-[4-(6-oxo-1H-pyridin-3-yl)phenyl]-3-[[rac-(6S)-6-tert-butyl-5,6,7,8-tetrahydrothieno[2,3-b]quinoline-2-carbonyl]amino]propyl] ammonium;formate] | 729
13 | CC(C)(C)[C@H]1CCc2nc3sc(C(=O)N[C@H](CCN4CCC(O)CC4)c4ccc(-n5cncn5)cc4)nc3cc2C1 [Example 84, (7S)-7-tert-butyl-N-[(1R)-3-(4-hydroxy-piperidin-1-ium-1-yl)-1-[4-(1,2,4-triazol-1-yl)phenyl]propyl]-5,6,7,8-tetra-hydrothiazolo[5,4-b] quinoline-2-carboxamide; 2,2,2-trifluoro-acetate] | 802
